Reference: ChEMBL document CHEMBL1154273, “Synthesis and antimalarial activity of new atovaquone derivatives” (Eur J Med Chem, 2009)

Test system: Plasmodium falciparum
Test: Antimalarial activity against Plasmodium falciparum Nigerian assessed as [3H]hypoxanthine uptake after 48 hrs by liquid scintillation counting
Type: functional, organism-based

Row | SMILES | IC50 [nM]
1 | CCCCCCCCCC(=O)OC1=C([C@H]2CC[C@H](c3ccc(Cl)cc3)CC2)C(=O)C(=O)c2ccccc21 | > 100
2 | O=C(Cc1ccc(F)cc1)OC1=C([C@H]2CC[C@H](c3ccc(Cl)cc3)CC2)C(=O)c2ccccc2C1=O | 1.75
3 | C=C[C@H]1CN2CC[C@H]1C[C@H]2[C@H](O)c1ccnc2ccc(OC)cc12 [QUININE] | 180
4 | O=C(Cc1ccc(Cl)cc1)OC1=C([C@H]2CC[C@H](c3ccc(Cl)cc3)CC2)C(=O)c2ccccc2C1=O | 1.65
5 | CCOC1=C([C@H]2CC[C@H](c3ccc(Cl)cc3)CC2)C(=O)c2ccccc2C1=O | 5.55
6 | O=C1C(OCc2ccccc2)=C([C@H]2CC[C@H](c3ccc(Cl)cc3)CC2)C(=O)c2ccccc21 | 7.65
7 | CCCCCCCCCC(=O)OC1=C([C@H]2CC[C@H](c3ccc(Cl)cc3)CC2)C(=O)c2ccccc2C1=O | 1.9
8 | CCCCCCOC1=C([C@H]2CC[C@H](c3ccc(Cl)cc3)CC2)C(=O)c2ccccc2C1=O | 13.5
9 | CCCCCCCCCOC1=C([C@H]2CC[C@H](c3ccc(Cl)cc3)CC2)C(=O)c2ccccc2C1=O | 14
10 | CCCCCCCCCCOC1=C([C@H]2CC[C@H](c3ccc(Cl)cc3)CC2)C(=O)c2ccccc2C1=O | 11
11 | O=C(OC1=C([C@H]2CC[C@H](c3ccc(Cl)cc3)CC2)C(=O)c2ccccc2C1=O)c1ccc(F)cc1 | 1.6
12 | CCCCCCCCCCCCCCCCCC(=O)OC1=C([C@H]2CC[C@H](c3ccc(Cl)cc3)CC2)C(=O)c2ccccc2C1=O | 52
13 | CCCCCCCCC(=O)OC1=C([C@H]2CC[C@H](c3ccc(Cl)cc3)CC2)C(=O)c2ccccc2C1=O | 3.1
14 | CCCCCCCCCCCCCCCCCCOC1=C([C@H]2CC[C@H](c3ccc(Cl)cc3)CC2)C(=O)c2ccccc2C1=O | 32

Molecules with a lower IC50, results first:

Row | IC50 [nM] | SMILES
15 | 0.75 | O=C1C(O)=C([C@H]2CC[C@H](c3ccc(Cl)cc3)CC2)C(=O)c2ccccc21 [ATOVAQUONE]
16 | 1.45 | O=C(/C=C/c1ccccc1)OC1=C([C@H]2CC[C@H](c3ccc(Cl)cc3)CC2)C(=O)c2ccccc2C1=O
17 | 1.25 | O=C(OC1=C([C@H]2CC[C@H](c3ccc(Cl)cc3)CC2)C(=O)c2ccccc2C1=O)c1ccccc1
18 | 1.5 | CC(=O)OC1=C([C@H]2CC[C@H](c3ccc(Cl)cc3)CC2)C(=O)c2ccccc2C1=O
19 | 1.5 | CCCCCCCC(=O)OC1=C([C@H]2CC[C@H](c3ccc(Cl)cc3)CC2)C(=O)c2ccccc2C1=O
20 | 1.25 | CCCCCC(=O)OC1=C([C@H]2CC[C@H](c3ccc(Cl)cc3)CC2)C(=O)c2ccccc2C1=O
